The pEC50 is the EC50 on a negative log10 scale, so that one unit is a factor of ten. By CC50 is commonly meant the concentration giving 50% cytotoxicity. As usually defined, the MIC is the smallest concentration in the dilution series that meets the test's criterion for growth inhibition. Read a low MIC as greater potency.

pEC50: −log10 of the molar value. Values after ≈ are worked out from the molar mass of the structure shown. Active and inactive are the calls of the source.

Three compounds from ChEMBL document CHEMBL3259765, “ProTides of N-(3-(5-(2'-deoxyuridine))prop-2-ynyl)octanamide as potential anti-tubercular and anti-viral agents” (Bioorg Med Chem, 2014) can be followed below.

One data set concerns Human alphaherpesvirus 1. The data set is described as follows: Antiviral activity against thymidine kinase-positive Herpes simplex virus 1 KOS infected in HEL cells assessed as reduction in virus-induced cytopathicity after 3 days. In kind it is functional, organism-based. Particulars: Human alphaherpesvirus 1, KOS, 72 h. (Damage to the host cells serves as the signal in cytopathic effect assays.)
As to `CCCCCCCC(=O)NCC#Cc1cn([C@H]2C[C@H](O)[C@@H](CO)O2)c(=O)[nH]c1=O`, the pEC50 is less than 4.00.

Take `CCCCCCCC(=O)NCC#Cc1cn([C@H]2C[C@H](O)[C@@H](COP(=O)(N[C@@H](C)C(=O)OCc3ccccc3)Oc3ccccc3)O2)c(=O)[nH]c1=O` (stereo not given in full): the pEC50 is 5.70.

As to `CCCCCCCC(=O)NCC#Cc1cn([C@H]2C[C@H](O)[C@@H](COP(=O)(N[C@@H](C)C(=O)OC)Oc3cccc4ccccc34)O2)c(=O)[nH]c1=O` (stereo not given in full), the pEC50 was less than 4.00.

System in another data set: not listed separately
The data set is described as follows: Cytotoxicity against HEL cells assessed as reduction in cell growth after 3 to 5 days by Coulter counting analysis. It counts as cell-based. Particulars: human.
`CCCCCCCC(=O)NCC#Cc1cn([C@H]2C[C@H](O)[C@@H](CO)O2)c(=O)[nH]c1=O`: the CC50 is greater than 100 µM.

For `CCCCCCCC(=O)NCC#Cc1cn([C@H]2C[C@H](O)[C@@H](COP(=O)(N[C@@H](C)C(=O)OCc3ccccc3)Oc3ccccc3)O2)c(=O)[nH]c1=O` (stereo not given in full), the CC50 stood at 48 µM.

`CCCCCCCC(=O)NCC#Cc1cn([C@H]2C[C@H](O)[C@@H](COP(=O)(N[C@@H](C)C(=O)OC)Oc3cccc4ccccc34)O2)c(=O)[nH]c1=O` (stereo not given in full): the CC50 was determined as 64 µM.

For a further data set, the system named is Human betaherpesvirus 5. The data set is described as follows: Antiviral activity against Human cytomegalovirus Davis infected in HEL cells assessed as reduction in virus-induced cytopathicity after 7 days. In kind it is functional, organism-based.
Conditions: not given
In the case of `CCCCCCCC(=O)NCC#Cc1cn([C@H]2C[C@H](O)[C@@H](CO)O2)c(=O)[nH]c1=O`, the result was inactive.

With `CCCCCCCC(=O)NCC#Cc1cn([C@H]2C[C@H](O)[C@@H](COP(=O)(N[C@@H](C)C(=O)OCc3ccccc3)Oc3ccccc3)O2)c(=O)[nH]c1=O` (stereo not given in full), the outcome was inactive.

Turning to `CCCCCCCC(=O)NCC#Cc1cn([C@H]2C[C@H](O)[C@@H](COP(=O)(N[C@@H](C)C(=O)OC)Oc3cccc4ccccc34)O2)c(=O)[nH]c1=O` (stereo not given in full), the result was inactive.

The next data set has as its system Escherichia coli. The data set is described as follows: Antibacterial activity against Escherichia coli DH5[alpha] ATCC 53868 after overnight incubation by HT-SPOTi assay. In kind it is functional, organism-based.
Conditions: not given
Consider `CCCCCCCC(=O)NCC#Cc1cn([C@H]2C[C@H](O)[C@@H](CO)O2)c(=O)[nH]c1=O`, for which the result was inactive.

Consider `CCCCCCCC(=O)NCC#Cc1cn([C@H]2C[C@H](O)[C@@H](COP(=O)(N[C@@H](C)C(=O)OCc3ccccc3)Oc3ccccc3)O2)c(=O)[nH]c1=O` (stereo not given in full), for which the outcome was inactive.

Regarding `CCCCCCCC(=O)NCC#Cc1cn([C@H]2C[C@H](O)[C@@H](COP(=O)(N[C@@H](C)C(=O)OC)Oc3cccc4ccccc34)O2)c(=O)[nH]c1=O` (stereo not given in full), the result was inactive.

In a further data set the test system is Human alphaherpesvirus 3. Nature of the data set: Antiviral activity against thymidine kinase-positive Varicella zoster virus Oka infected in HEL cells assessed as reduction in viral plaque formation after 5 days. In kind it is functional, organism-based. The following applies: Human alphaherpesvirus 3, strain Oka vaccine, 120 h.
Consider `CCCCCCCC(=O)NCC#Cc1cn([C@H]2C[C@H](O)[C@@H](CO)O2)c(=O)[nH]c1=O`, for which the pEC50 was less than 4.00.

With `CCCCCCCC(=O)NCC#Cc1cn([C@H]2C[C@H](O)[C@@H](COP(=O)(N[C@@H](C)C(=O)OCc3ccccc3)Oc3ccccc3)O2)c(=O)[nH]c1=O` (stereo not given in full), the pEC50 was 5.70.

For `CCCCCCCC(=O)NCC#Cc1cn([C@H]2C[C@H](O)[C@@H](COP(=O)(N[C@@H](C)C(=O)OC)Oc3cccc4ccccc34)O2)c(=O)[nH]c1=O` (stereo not given in full), the pEC50 is 4.43.

The test system of the next data set is Human alphaherpesvirus 3. The data set is described as follows: Antiviral activity against thymidine kinase-deficient Varicella zoster virus 07-1 infected in HEL cells assessed as reduction in viral plaque formation after 5 days. Particulars: Human alphaherpesvirus 3, 07-1, HEL, 120 h. In kind it is functional, organism-based.
On to `CCCCCCCC(=O)NCC#Cc1cn([C@H]2C[C@H](O)[C@@H](CO)O2)c(=O)[nH]c1=O`, for which the pEC50 was less than 4.00.

With `CCCCCCCC(=O)NCC#Cc1cn([C@H]2C[C@H](O)[C@@H](COP(=O)(N[C@@H](C)C(=O)OCc3ccccc3)Oc3ccccc3)O2)c(=O)[nH]c1=O` (stereo not given in full), the pEC50 was less than 4.70.

Consider `CCCCCCCC(=O)NCC#Cc1cn([C@H]2C[C@H](O)[C@@H](COP(=O)(N[C@@H](C)C(=O)OC)Oc3cccc4ccccc34)O2)c(=O)[nH]c1=O` (stereo not given in full), for which the pEC50 was 4.34.

For the next data set, the system named is Human betaherpesvirus 5. Nature of the data set: Antiviral activity against Human cytomegalovirus AD169 infected in HEL cells assessed as reduction in virus-induced cytopathicity after 7 days.
Conditions: not given
It counts as functional, organism-based.
For the compound `CCCCCCCC(=O)NCC#Cc1cn([C@H]2C[C@H](O)[C@@H](CO)O2)c(=O)[nH]c1=O`, the outcome was inactive.

As to `CCCCCCCC(=O)NCC#Cc1cn([C@H]2C[C@H](O)[C@@H](COP(=O)(N[C@@H](C)C(=O)OCc3ccccc3)Oc3ccccc3)O2)c(=O)[nH]c1=O` (stereo not given in full), the result was inactive.

For `CCCCCCCC(=O)NCC#Cc1cn([C@H]2C[C@H](O)[C@@H](COP(=O)(N[C@@H](C)C(=O)OC)Oc3cccc4ccccc34)O2)c(=O)[nH]c1=O` (stereo not given in full), the result was inactive.

System in a further data set: not listed separately
Nature of the data set: Cytotoxicity against HEL cells assessed as morphological changes after 3 to 5 days […]. In kind it is cell-based. Particulars: human.
For the compound `CCCCCCCC(=O)NCC#Cc1cn([C@H]2C[C@H](O)[C@@H](COP(=O)(N[C@@H](C)C(=O)OCc3ccccc3)Oc3ccccc3)O2)c(=O)[nH]c1=O` (stereo not given in full), the MCC is greater than 100 µM.

As to `CCCCCCCC(=O)NCC#Cc1cn([C@H]2C[C@H](O)[C@@H](COP(=O)(N[C@@H](C)C(=O)OC)Oc3cccc4ccccc34)O2)c(=O)[nH]c1=O` (stereo not given in full), the MCC was greater than 100 µM.

A further data set concerns Mycobacterium tuberculosis. Nature of the data set: Antibacterial activity against Mycobacterium tuberculosis H37Rv ATCC 27294 up to 2 weeks by HT-SPOTi assay. It counts as functional. Particulars: H37Rv ATCC 27294, 336 h.
`CCCCCCCC(=O)NCC#Cc1cn([C@H]2C[C@H](O)[C@@H](CO)O2)c(=O)[nH]c1=O`: the MIC was greater than 250 µg/mL.

Turning to `CCCCCCCC(=O)NCC#Cc1cn([C@H]2C[C@H](O)[C@@H](COP(=O)(N[C@@H](C)C(=O)OCc3ccccc3)Oc3ccccc3)O2)c(=O)[nH]c1=O` (stereo not given in full), the minimum inhibitory concentration (MIC) worked out at 125 µg/mL (≈ 172 µM).

On to `CCCCCCCC(=O)NCC#Cc1cn([C@H]2C[C@H](O)[C@@H](COP(=O)(N[C@@H](C)C(=O)OC)Oc3cccc4ccccc34)O2)c(=O)[nH]c1=O` (stereo not given in full), for which the MIC was found to be 62.5 µg/mL (≈ 89.5 µM).

A further data set relates to Human alphaherpesvirus 2. Nature of the data set: Antiviral activity against Herpes simplex virus 2 G infected in HEL cells assessed as reduction in virus-induced cytopathicity after 3 days. In kind it is functional, organism-based. Particulars: Human alphaherpesvirus 2, strain G, 72 h.
Regarding `CCCCCCCC(=O)NCC#Cc1cn([C@H]2C[C@H](O)[C@@H](CO)O2)c(=O)[nH]c1=O`, the pEC50 is less than 4.00.

For the compound `CCCCCCCC(=O)NCC#Cc1cn([C@H]2C[C@H](O)[C@@H](COP(=O)(N[C@@H](C)C(=O)OCc3ccccc3)Oc3ccccc3)O2)c(=O)[nH]c1=O` (stereo not given in full), the pEC50 was 5.40.

For the compound `CCCCCCCC(=O)NCC#Cc1cn([C@H]2C[C@H](O)[C@@H](COP(=O)(N[C@@H](C)C(=O)OC)Oc3cccc4ccccc34)O2)c(=O)[nH]c1=O` (stereo not given in full), the pEC50 was less than 4.00.

The subject of a further data set is Vaccinia virus. The data set is described as follows: Antiviral activity against Vaccinia virus infected in HEL cells assessed as reduction in virus-induced cytopathicity after 3 days. In kind it is functional, organism-based. The following applies: Orthopoxvirus vaccinia.
Regarding `CCCCCCCC(=O)NCC#Cc1cn([C@H]2C[C@H](O)[C@@H](CO)O2)c(=O)[nH]c1=O`, the result was inactive.

As to `CCCCCCCC(=O)NCC#Cc1cn([C@H]2C[C@H](O)[C@@H](COP(=O)(N[C@@H](C)C(=O)OCc3ccccc3)Oc3ccccc3)O2)c(=O)[nH]c1=O` (stereo not given in full), the outcome was inactive.

With `CCCCCCCC(=O)NCC#Cc1cn([C@H]2C[C@H](O)[C@@H](COP(=O)(N[C@@H](C)C(=O)OC)Oc3cccc4ccccc34)O2)c(=O)[nH]c1=O` (stereo not given in full), the result was inactive.

For the next data set, the system named is Human alphaherpesvirus 1. Nature of the data set: Antiviral activity against thymidine kinase-deficient ACV-resistant Herpes simplex virus 1 B-2006 infected in HEL cells assessed as reduction in virus-induced cytopathicity after 3 days. It counts as functional, organism-based. The following applies: Human alphaherpesvirus 1, B-2006, HEL, 72 h.
Consider `CCCCCCCC(=O)NCC#Cc1cn([C@H]2C[C@H](O)[C@@H](CO)O2)c(=O)[nH]c1=O`, for which the pEC50 was less than 4.00.

For `CCCCCCCC(=O)NCC#Cc1cn([C@H]2C[C@H](O)[C@@H](COP(=O)(N[C@@H](C)C(=O)OCc3ccccc3)Oc3ccccc3)O2)c(=O)[nH]c1=O` (stereo not given in full), the pEC50 was less than 4.00.

For `CCCCCCCC(=O)NCC#Cc1cn([C@H]2C[C@H](O)[C@@H](COP(=O)(N[C@@H](C)C(=O)OC)Oc3cccc4ccccc34)O2)c(=O)[nH]c1=O` (stereo not given in full), the pEC50 is less than 4.00.
